Here are results for one molecule from US10251843B2, “Crosslinked nanoparticle composition” (priority 2015, dated 2019).

For data set [1] the following is noted: mice, reported; cited from earlier work.
The nature of data set [2]: In vivo pharmacokinetics, serum amoxicillin after oral gavage. The conditions noted are these: ICR mice. The protocol: The experiments were performed on male and female ICR mice (6-8 weeks) to evaluate the amoxicillin concentration in serum. […] Each testing group contained 10 mice (five male and five female). The concentration of amoxicillin in each collected serum sample was determined by HPLC.

Take `CC1(C)S[C@@H]2[C@H](NC(=O)[C@H](N)c3ccc(O)cc3)C(=O)N2[C@H]1C(=O)O.O.O.O` [free amoxicillin, (2S,5R,6R)-6-[(R)-(−)-2-amino-2-(p-hydroxyphenyl)acetamido]-3,3-dimethyl-7-oxo-4-thia-1-azabicyclo[3.2.0]heptane-2-carboxylic acid trihydrate]: in data set [1], the “plasma half-life of amoxicillin” value is on record as “about 40 minutes”. Also, in data set [2] (2 mg amoxicillin), the “time at which serum concentration of amoxicillin peaked” value was 15 min. Also, the “serum concentration as % of the peak value” in data set [2] (after 1 hour) is “below 50%”; in data set [2] (after 2 hours), “below 20%”. For the same molecule, in data set [2] (compared with the nanoparticle formulation), the “area under the curve (total measured amount of drug in the circulation)” value was “smaller area”.
